Measured values: patent US20200239530A1, “COMPOUNDS AND METHODS OF MODULATING PROTEIN DEGRADATION” (Vividion Therapeutics, Inc., priority 2017, published 2020)

Target: T1, RING1 E3 ubiquitin-protein ligase RING1 (Homo sapiens, UniProt Q06587)
T1 construct: Cells were resuspended in cold PBS on ice and sonicated with a probe sonicator to achieve lysis; endogenous in cells
T1 sequence (Q06587 1-406): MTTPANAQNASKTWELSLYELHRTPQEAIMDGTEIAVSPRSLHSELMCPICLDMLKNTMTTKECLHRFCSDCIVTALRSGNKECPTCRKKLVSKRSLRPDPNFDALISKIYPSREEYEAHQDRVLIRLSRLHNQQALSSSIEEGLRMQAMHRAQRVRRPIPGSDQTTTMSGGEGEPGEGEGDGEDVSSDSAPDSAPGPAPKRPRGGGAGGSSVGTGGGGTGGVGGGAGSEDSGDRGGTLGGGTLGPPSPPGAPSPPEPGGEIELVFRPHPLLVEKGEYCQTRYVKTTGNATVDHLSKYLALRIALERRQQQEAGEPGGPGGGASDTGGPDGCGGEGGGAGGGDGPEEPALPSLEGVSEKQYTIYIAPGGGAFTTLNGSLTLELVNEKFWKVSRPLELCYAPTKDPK
Experiment: Cysteine liganding, probe competition
Format: binding
Method in brief: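 Probe competition in native proteome: 5 mg/ml lysate, compound 1 hr 25° C, then desthiobiotin iodoacetamide (10 mM stock) 1 hr 25° C; acetone ppt, urea/DTT reduction, iodoacetamide alkylation, trypsin, streptavidin pull-down.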

For `COc1ccc2c(c1)CCCN2C(=O)CCl` [KB02], which Liganded (RING1 Res# 72, uniprot Q06587) is on record?
Its Liganded is “YES”.

Which Liganded (RING1 Res# 51, uniprot Q06587) does the source give for `O=C(CCl)Nc1cc(C(F)(F)F)cc(C(F)(F)F)c1` [KBO3] here?
The Liganded was “YES”.

What about the Liganded (RING1 Res# 72, uniprot Q06587) of the same compound?
The Liganded was “YES”.

What about the “100 Max” value (uniprot Q06587) of the same compound?
The value was 18.1.

What about the 100 ave (uniprot Q06587) of the same compound?
The 100 ave was 0.5.
